# Test system: SiHa cervical cancer xenografts
# Test: Excision assay of SiHa xenografts (clonogenic log cell kill)
# Assay type: in vivo, CD-1 Fox^nu mice
# Settings: SN 28343 91.2 mg/kg, SN 29303 375 mg/kg
# Procedure: As for Part 1 except for except where noted below.
# Excess compound was discarded.
# Date, body weights (used to adjust injection volume), tumor diameter, unique identifier (tail markings), body weight, and volume to be injected were recorded. Animals were dosed with the test articles i.p. following a defined treatment schedule:
# 18 hours after treatment the mice were culled by cervical dislocation and tumors removed by dissection, in a sterile laminar flow hood. Whole tumor weights were recorded. Tumors were minced using scissors or scalpels until a fine minceate was obtained, and up to 500 mg of minceate was transferred into a pre-tiered Falcon®14 ml test tube containing a sterile magnetic spin bar and re-weighed.
# Samples were then incubated in 37° C. water bath for 30 min over a magnetic stirrer.
# After incubation any undissociated material was allowed to settle for 1 minute. […] Pellets were re-suspended in 10 ml of medium. Cells/ml was determined using an electronic particle counter (Beckman Coulter Electronics, Z2 model). Samples were then diluted to 1×10^5cells/ml and 6-fold serial dilutions made down to 4.6×10^2cells/ml.
# 1 ml of each sample was plated in triplicate for each dilution into appropriately labelled Falcon® P-60 tissue culture dishes containing 4 ml of αMEM+10% FCS+PS.
# Where possible, all plates were counted; those colonies counted=larger than 50 cells, confirmed with the light microscope. TMTC was recorded for those plates where there were too many colonies to count.
# The criteria for selecting the best dilution to use for calculating plating efficiency (PE):
# Higher dilution count>100 colonies (average); lower dilution 10-100 colonies, use PE from the dilution with fewer colonies.
# Higher dilution count >100; lower dilution count <20, use average data from both.
# Higher dilution count <100; lower dilution count <20, use PE from the dilution with more colonies.
# Higher dilution count <100; lower dilution count >20, use average data from both. Note: For the 10^5 dilution, take as the “lower limit” colony count a total count of 30, (sum of all replicates).
compound,measurement,setting,value
"CC(=O)O[C@@]12CO[C@@H]1C[C@H](O)[C@@]1(C)C(=O)[C@H](O)C3=C(C)[C@@H](OC(=O)[C@H](O)[C@@H](NC(=O)OC(C)(C)C)c4ccccc4)C[C@@](O)([C@@H](OC(=O)c4ccccc4)[C@H]21)C3(C)C [Docetaxel, (2R,3S)-N-carboxy-3-phenylisoserine, N-tert-butyl ester, 13-ester with 5β-20-epoxy-1,2α,4,7β,10β,13α-hexahydroxytax-11-en-9-one 4-acetate 2-benzoate, trihydrate, reference compound]",cell kill versus controls in excision assay (in words),"SiHa human cervical tumor xenograft, docetaxel 65 mg/kg i.p.",inactive
same,Log Cell Kill versus controls (Mean ± SEM),"SiHa tumors excised 18 hours after treatment, docetaxel 65 mg/kg, i.p.",0.451

# Source: patent publication US20080064665A1, “Combination approaches to cancer treatment” (priority 2006, published 2008)
